For one assay, the target named is CDK5/p25 (Homo sapiens (Human), UniProt Q00535). The assay can be described thus: Invitrogen Z'-LYTE kinase assay CDK5/p25 (assay ID 318, Km app, 10-point titration). The class given is biochemical. Particulars: CDK5/p25, Km app ATP. From the text:
(§1) CDK2 and CDK5 IC50 data were attained through the use of Invitrogen™ commercial assays. The method for CDK2 (assay ID: 315, kinase|Z'-LYTE™|CDK2/Cyclin A|Km app) used a 10-point titration. The method for CDK5 (assay ID: 318, kinase|Z'-LYTE™|CDK5/p25|Km app) used a 10-point titration.

Another assay addresses CDK2/Cyclin A (Homo sapiens (Human), UniProt P24941). Put plainly: Invitrogen Z'-LYTE kinase assay CDK2/Cyclin A (assay ID 315, Km app, 10-point titration). It is filed as biochemical. Particulars: Km app ATP.
Excerpt: as §1

The term IC50 denotes the concentration at which inhibition is half-maximal.

Sequence of CDK5/p25 (Q00535 whole entry): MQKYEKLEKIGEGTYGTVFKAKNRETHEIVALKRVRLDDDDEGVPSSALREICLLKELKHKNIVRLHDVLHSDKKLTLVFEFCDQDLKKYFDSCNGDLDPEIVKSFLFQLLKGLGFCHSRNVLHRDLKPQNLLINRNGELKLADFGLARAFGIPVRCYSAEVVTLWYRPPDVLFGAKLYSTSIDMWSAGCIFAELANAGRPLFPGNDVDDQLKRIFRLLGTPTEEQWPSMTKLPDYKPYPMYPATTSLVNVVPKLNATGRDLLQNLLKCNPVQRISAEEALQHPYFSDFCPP
Sequence of CDK5/p25 (Q15078 99-307 partner): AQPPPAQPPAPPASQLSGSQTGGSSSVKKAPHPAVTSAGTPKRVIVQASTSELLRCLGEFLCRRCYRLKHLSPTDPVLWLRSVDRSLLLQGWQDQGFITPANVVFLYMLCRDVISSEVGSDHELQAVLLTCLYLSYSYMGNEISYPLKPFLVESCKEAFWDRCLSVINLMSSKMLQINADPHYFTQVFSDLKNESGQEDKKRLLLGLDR

In the case of `NC(=O)c1c(F)cccc1Nc1nc(NC2CCN(S(=O)(=O)CCNC(=O)CCCCCOc3cccc4c3C(=O)N(C3CCC(=O)NC3=O)C4=O)CC2)ncc1Br` (stereo not shown) [Compound 7, 2-((5-bromo-2-((1-((2-(6-((2-(2,6-dioxopiperidin-3-yl)-1,3-dioxoisoindolin-4-yl)oxy)hexanamido)ethyl)sulfonyl)piperidin-4-yl)amino)pyrimidin-4-yl)amino)-6-fluorobenzamide], the IC50 against CDK5/p25 is 13.7 nM; against CDK2/Cyclin A it was 20.5 nM.
The corresponding values for `O=C(CCCCCCCCOc1cccc2c1C(=O)N(C1CCC(=O)NC1=O)C2=O)NCCS(=O)(=O)N1CCC(Nc2ncc(Br)c(Nc3cccc4c3OCO4)n2)CC1` (stereo not shown) [Compound 17, N-(2-((4-((4-(benzo[d][1,3]dioxol-4-ylamino)-5-bromopyrimidin-2-yl)amino)piperidin-1-yl)sulfonyl)ethyl)-9-((2-(2,6-dioxopiperidin-3-yl)-1,3-dioxoisoindolin-4-yl)oxy)nonanamide] are 924 nM and 253 nM.
For the molecule `Cc1cc(S(=O)(=O)NCCOCCOCCOCCOCCNC(=O)COc2cccc3c2C(=O)N(C2CCC(=O)NC2=O)C3=O)ccc1Nc1ncc(Br)c(Nc2cccc(F)c2C(N)=O)n1` (stereo not shown) [Compound 46, 2-((5-bromo-2-((4-(N-(1-((2-(2,6-dioxopiperidin-3-yl)-1,3-dioxoisoindolin-4-yl)oxy)-2-oxo-6,9,12,15-tetraoxa-3-azaheptadecan-17-yl)sulfamoyl)-2-methylphenyl)amino)pyrimidin-4-yl)amino)-6-fluorobenzamide], the IC50 turned out to be 1.4 nM against CDK5/p25 and 1.7 nM against CDK2/Cyclin A.
On the same counts, the results for `NC(=O)c1c(F)cccc1Nc1nc(N[C@@H]2CCCN(S(=O)(=O)CCNC(=O)CCCCCCCCOc3cccc4c3C(=O)N(C3CCC(=O)NC3=O)C4=O)C2)ncc1Br` (stereo partly drawn) [Compound 8, 2-((5-bromo-2-(((3R)-1-((2-(9-((2-(2,6-dioxopiperidin-3-yl)-1,3-dioxoisoindolin-4-yl)oxy)nonanamido)ethyl)sulfonyl)piperidin-3-yl)amino)pyrimidin-4-yl)amino)-6-fluorobenzamide] are 241 nM and 347 nM.
On the same counts, the results for `NC(=O)c1c(F)cccc1Nc1nc(NC2CCN(S(=O)(=O)CCNC(=O)CCOCCOCCOCCOCCOCCOCCOCCOCCNc3cccc4c3C(=O)N(C3CCC(=O)NC3=O)C4=O)CC2)ncc1Br` (stereo not shown) [Compound 4, N-(2-((4-((5-bromo-4-((2-carbamoyl-3-fluorophenyl)amino)pyrimidin-2-yl)amino)piperidin-1-yl)sulfonyl)ethyl)-1-((2-(2,6-dioxopiperidin-3-yl)-1,3-dioxoisoindolin-4-yl)amino)-3,6,9,12,15,18,21,24-octaoxaheptacosan-27-amide] are 8.4 nM and 7.3 nM.
On the same counts, the results for `Cc1cc(S(=O)(=O)NCCCCN2CCN(C(=O)COc3cccc4c3C(=O)N(C3CCC(=O)NC3=O)C4=O)CC2)ccc1Nc1ncc(Br)c(Nc2cccc(F)c2C(N)=O)n1` (stereo not shown) [Compound 48, 2-((5-bromo-2-((4-(N-(4-(4-(2-((2-(2,6-dioxopiperidin-3-yl)-1,3-dioxoisoindolin-4-yl)oxy)acetyl)piperazin-1-yl)butyl)sulfamoyl)-2-methylphenyl)amino)pyrimidin-4-yl)amino)-6-fluorobenzamide] are 2.9 nM and 2 nM.
With `NC(=O)c1c(F)cccc1Nc1nc(Nc2ccc(S(=O)(=O)NCCOCCOCCOCCOCCNc3cccc4c3C(=O)N(C3CCC(=O)NC3=O)C4=O)cc2)ncc1Br` (stereo not shown) [Compound 23, 2-((5-bromo-2-((4-(N-(14-((2-(2,6-dioxopiperidin-3-yl)-1,3-dioxoisoindolin-4-yl)amino)-3,6,9,12-tetraoxatetradecyl)sulfamoyl)phenyl)amino)pyrimidin-4-yl)amino)-6-fluorobenzamide], the values for the 50% inhibitory concentration (IC50) against CDK5/p25 and at CDK2/Cyclin A were 7 nM and 10.9 nM, respectively.
The corresponding values for `NC(=O)c1c(F)cccc1Nc1nc(NC2CCN(S(=O)(=O)CCNC(=O)CCOCCNc3cccc4c3C(=O)N(C3CCC(=O)NC3=O)C4=O)CC2)ncc1Br` (stereo not shown) [Compound 2, 2-((5-bromo-2-((1-((2-(3-(2-((2-(2,6-dioxopiperidin-3-yl)-1,3-dioxoisoindolin-4-yl)amino)ethoxy)propanamido)ethyl)sulfonyl)piperidin-4-yl)amino)pyrimidin-4-yl)amino)-6-fluorobenzamide] are 3.8 nM and 5.1 nM.
On the same counts, the results for `O=C(CCOCCOCCOCCOCCNc1cccc2c1C(=O)N(C1CCC(=O)NC1=O)C2=O)NCCS(=O)(=O)N1CCC(Nc2ncc(Br)c(N3CCCc4ccccc43)n2)CC1` (stereo not shown) [Compound 18, N-(2-((4-((5-bromo-4-(3,4-dihydroquinolin-1(2H)-yl)pyrimidin-2-yl)amino)piperidin-1-yl)sulfonyl)ethyl)-1-((2-(2,6-dioxopiperidin-3-yl)-1,3-dioxoisoindolin-4-yl)amino)-3,6,9,12-tetraoxapentadecan-15-amide] are 27.4 nM and 23.7 nM.
On the same counts, the results for `Cc1ncsc1-c1ccc([C@H](C)NC(=O)[C@@H]2C[C@@H](O)CN2C(=O)[C@@H](NC(=O)CCOCCOCCOCCC(=O)NCCS(=O)(=O)N2CCC(Nc3ncc(Br)c(Nc4cccc(F)c4C(N)=O)n3)CC2)C(C)(C)C)cc1` [Compound 9, (2S,4R)-1-((S)-19-((4-((5-bromo-4-((2-carbamoyl-3-fluorophenyl)amino)pyrimidin-2-yl)amino)piperidin-1-yl)sulfonyl)-2-(tert-butyl)-4,16-dioxo-7,10,13-trioxa-3,17-diazanonadecanoyl)-4-hydroxy-N—((S)-1-(4-(4-methylthiazol-5-yl)phenyl)ethyl)pyrrolidine-2-carboxamide] are 4.1 nM and 7.5 nM.
On to `Cn1ncc(Nc2nc(NC3CCN(S(=O)(=O)CCNC(=O)CCCCCCCCOc4cccc5c4C(=O)N(C4CCC(=O)NC4=O)C5=O)CC3)ncc2Br)c1C(N)=O` (stereo not shown) [Compound 22, 4-((5-bromo-2-((1-((2-(9-((2-(2,6-dioxopiperidin-3-yl)-1,3-dioxoisoindolin-4-yl)oxy)nonanamido)ethyl)sulfonyl)piperidin-4-yl)amino)pyrimidin-4-yl)amino)-1-methyl-1H-pyrazole-5-carboxamide], for which the IC50 at CDK5/p25 and on CDK2/Cyclin A was 5.7 nM in each case.
`O=C(CCOCCOCCOCCOCCNc1cccc2c1C(=O)N(C1CCC(=O)NC1=O)C2=O)NCCS(=O)(=O)N1CCC(Nc2ncc(Br)c(Nc3cccc4c3C(=O)NC4)n2)CC1` (stereo not shown) [Compound 20, N-(2-((4-((5-bromo-4-((3-oxoisoindolin-4-yl)amino)pyrimidin-2-yl)amino)piperidin-1-yl)sulfonyl)ethyl)-1-((2-(2,6-dioxopiperidin-3-yl)-1,3-dioxoisoindolin-4-yl)amino)-3,6,9,12-tetraoxapentadecan-15-amide]: the 50% inhibitory concentration (IC50) against CDK5/p25 was 5.8 nM; on CDK2/Cyclin A, 4.7 nM.
On the same counts, the results for `Cc1cc(S(=O)(=O)NCCCCCCCCCCNC(=O)COc2cccc3c2C(=O)N(C2CCC(=O)NC2=O)C3=O)ccc1Nc1ncc(Br)c(Nc2cccc(F)c2C(N)=O)n1` (stereo not shown) [Compound 47, 2-((5-bromo-2-((4-(N-(10-(2-((2-(2,6-dioxopiperidin-3-yl)-1,3-dioxoisoindolin-4-yl)oxy)acetamido)decyl)sulfamoyl)-2-methylphenyl)amino)pyrimidin-4-yl)amino)-6-fluorobenzamide] are 18.2 nM and 19.4 nM.
On the same counts, the results for `NC(=O)c1c(F)cccc1Nc1nc(NC2CCN(S(=O)(=O)CCNC(=O)CCOCCOCCOCCOCCNc3cccc4c3C(=O)N(C3CCC(=O)NC3=O)C4=O)CC23CC3)ncc1Br` (stereo not shown) [Compound 19, N-(2-((8-((5-bromo-4-((2-carbamoyl-3-fluorophenyl)amino)pyrimidin-2-yl)amino)-5-azaspiro[2.5]octan-5-yl)sulfonyl)ethyl)-1-((2-(2,6-dioxopiperidin-3-yl)-1,3-dioxoisoindolin-4-yl)amino)-3,6,9,12-tetraoxapentadecan-15-amide] are 71.3 nM and 116 nM.
On the same counts, the results for `NC(=O)c1c(F)cccc1Nc1nc(NC2CCN(S(=O)(=O)CCNC(=O)CCOCCOCCOc3cccc4c3C(=O)N(C3CCC(=O)NC3=O)C4=O)CC2)ncc1Br` (stereo not shown) [Compound 3, 2-((5-bromo-2-((1-((2-(3-(2-(2-((2-(2,6-dioxopiperidin-3-yl)-1,3-dioxoisoindolin-4-yl)oxy)ethoxy)ethoxy)propanamido)ethyl)sulfonyl)piperidin-4-yl)amino)pyrimidin-4-yl)amino)-6-fluorobenzamide] are 4.8 nM and 4.9 nM.
As for `Cc1ncsc1-c1ccc([C@H](C)NC(=O)[C@@H]2C[C@@H](O)CN2C(=O)[C@@H](NC(=O)CCCCC(=O)NCCS(=O)(=O)N2CCC(Nc3ncc(Br)c(Nc4cccc(F)c4C(N)=O)n3)CC2)C(C)(C)C)cc1` [Compound 10, N^1-(2-((4-((5-bromo-4-((2-carbamoyl-3-fluorophenyl)amino)pyrimidin-2-yl)amino)piperidin-1-yl)sulfonyl)ethyl)-N^6—((S)-1-((2S,4R)-4-hydroxy-2-(((S)-1-(4-(4-methylthiazol-5-yl)phenyl)ethyl)carbamoyl)pyrrolidin-1-yl)-3,3-dimethyl-1-oxobutan-2-yl)adipamide], the results for the IC50 against CDK5/p25 and at CDK2/Cyclin A were 4.3 nM and 9.1 nM, respectively.
The corresponding values for `O=C(CCCCCCCCOc1cccc2c1C(=O)N(C1CCC(=O)NC1=O)C2=O)NCCS(=O)(=O)N1CCC(Nc2ncc(Br)c(Nc3cccc4c3C(=O)NC4)n2)CC1` (stereo not shown) [Compound 21, N-(2-((4-((5-bromo-4-((3-oxoisoindolin-4-yl)amino)pyrimidin-2-yl)amino)piperidin-1-yl)sulfonyl)ethyl)-9-((2-(2,6-dioxopiperidin-3-yl)-1,3-dioxoisoindolin-4-yl)oxy)nonanamide] are 7.6 nM and 10.5 nM.

The values above are taken from patent US12466809B2, “CDK2/5 degraders and uses thereof” (DANA-FARBER CANCER INSTITUTE, INC., priority 2019, dated 2025).
